Laboratory results from ChEMBL document CHEMBL4364328, “Inhibition of ACSS2 for Treatment of Cancer and Neuropsychiatric Diseases” (ACS Med Chem Lett, 2019).

Molecular target: Acetyl-coenzyme A synthetase, cytoplasmic (Homo sapiens, UniProt Q9NR19)
Test: Inhibition of ACSS2 in human MDA-MB-468 cells assessed as 13C-acetate incorporation incubated for 5 hrs measured under hypoxic conditions by LCMS analysis
Type: cell-based

Chain of Acetyl-coenzyme A synthetase, cytoplasmic (Q9NR19 whole entry): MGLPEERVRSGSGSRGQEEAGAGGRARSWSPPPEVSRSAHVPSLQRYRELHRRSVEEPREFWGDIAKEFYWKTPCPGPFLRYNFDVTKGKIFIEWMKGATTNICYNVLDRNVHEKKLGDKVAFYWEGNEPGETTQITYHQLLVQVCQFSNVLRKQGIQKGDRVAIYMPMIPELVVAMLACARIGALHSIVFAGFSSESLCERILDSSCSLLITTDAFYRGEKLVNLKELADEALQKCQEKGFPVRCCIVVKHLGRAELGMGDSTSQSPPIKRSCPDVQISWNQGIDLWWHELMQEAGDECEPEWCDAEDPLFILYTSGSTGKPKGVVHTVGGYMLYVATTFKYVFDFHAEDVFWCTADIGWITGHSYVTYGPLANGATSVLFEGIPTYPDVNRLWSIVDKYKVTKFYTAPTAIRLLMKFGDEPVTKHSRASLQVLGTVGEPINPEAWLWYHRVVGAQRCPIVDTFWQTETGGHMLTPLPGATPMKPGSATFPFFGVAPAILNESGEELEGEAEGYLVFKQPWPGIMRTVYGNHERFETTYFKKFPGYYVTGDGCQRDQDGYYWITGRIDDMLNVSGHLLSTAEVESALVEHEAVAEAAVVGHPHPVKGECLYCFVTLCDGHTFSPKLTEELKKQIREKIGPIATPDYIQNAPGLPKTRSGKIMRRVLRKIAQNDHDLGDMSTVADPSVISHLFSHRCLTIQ

SMILES	IC50 [nM]
COc1ccc(N2N=C(C)C(C(=O)Nc3cccc(C(C)(F)F)c3)C2=O)cn1 (stereo unspecified)	5
CCC(F)(F)c1cccc(NC(=O)C2C(=O)N(c3ccc(OC)cc3)N=C2C)c1 (stereo unspecified)	0.463
COC(=O)c1cccc(N2N=C(C)C(C(=O)Nc3cccc(-c4ccco4)c3)C2=O)c1 (stereo unspecified)	2.1
CC1=NN(c2ccccc2)C(=O)C1C(=O)Nc1cccc(C(C)(F)F)c1 (stereo unspecified)	4
COc1ccc(N2N=C(C)C(C(=O)Nc3cccc(C(C)(F)F)c3)C2=O)cc1-c1ncco1 (stereo unspecified)	1.1
COc1ccc(N2N=C(C)C(C(=O)Nc3cccc(-c4ccco4)c3)C2=O)cn1 (stereo unspecified)	3.9
COc1ccc(N2N=C(C)C(C(=O)Nc3cccc(C(C)(F)F)c3)C2=O)cc1OC (stereo unspecified)	1
COc1ccc(N2N=C(C)C(C(=O)Nc3cccc(C(C)(F)F)c3)C2=O)cc1 (stereo unspecified)	4.5
COc1ccc(N2N=C(C)C(C(=O)Nc3cccc(-c4ccco4)c3)C2=O)cc1 (stereo unspecified)	3.2
CC1=NN(c2ccc(OC(F)F)c(-c3cccnc3)c2)C(=O)C1C(=O)Nc1cccc(C(C)(F)F)c1 (stereo unspecified)	0.33
CC1=NN(c2ccc(OC(F)F)cc2)C(=O)C1C(=O)Nc1cccc(C(C)(F)F)c1 (stereo unspecified)	2.66
